Source: US10588317B2, “Isoxazoline-substituted benzamides and analogues as insecticides” (priority 2015, dated 2020)

Key:
Assay type in all cases: in vivo
[1] = system: Diabrotica balteata; assay: Diabrotica balteata (corn root worm), sprayed maize sprouts; settings: 96 h, application rate 200 ppm, L2 larvae, 4 days after infestation, read-out: effect in at least one of the two categories (mortality or growth inhibition)
Procedure: Maize sprouts placed onto an agar layer in 24-well microtiter plates were treated with aqueous test solutions prepared from 10'000 ppm DMSO stock solutions by spraying. After drying, the plates were infested with L2 larvae (6 to 10 per well). The samples were assessed for mortality and growth inhibition in comparison to untreated samples 4 days after infestation.
(§1) The following compounds gave an effect of at least 80% in at least one of the two categories (mortality or growth inhibition) at an application rate of 200 ppm: […]

[2] = system: Tetranychus urticae; assay: Tetranychus urticae (two-spotted spider mite): feeding/contact activity; settings: 192 h, application rate 200 ppm, mixed population (mobile stages), 8 days after infestation, read-out: mortality
Procedure: Bean leaf discs on agar in 24-well microtiter plates were sprayed with aqueous test solutions prepared from 10'000 ppm DMSO stock solutions. After drying the leaf discs were infested with a mite population of mixed ages. The samples were assessed for mortality on mixed population (mobile stages) 8 days after infestation.

[3] = system: Thrips tabaci; assay: Thrips tabaci (onion thrips): feeding/contact activity; settings: 144 h, application rate 200 ppm, Thrips population of mixed ages, 6 days after infestation, read-out: mortality
Procedure: Sunflower leaf discs were placed on agar in 24-well microtiter plates and sprayed with aqueous test solutions prepared from 10'000 ppm DMSO stock solutions. After drying the leaf discs were infested with a Thrips population of mixed ages. The samples were assessed for mortality 6 days after infestation.

[4] = system: Spodoptera littoralis; assay: Spodoptera littoralis (Egyptian cotton leaf worm), sprayed cotton leaf discs; settings: foliar, 72 h, application rate 200 ppm, L1 larvae, 3 days after infestation, read-out: control (mortality, anti-feeding effect, growth inhibition)
Procedure: Cotton leaf discs were placed onto agar in 24-well microtiter plates and sprayed with aqueous test solutions prepared from 10'000 ppm DMSO stock solutions. After drying the leaf discs were infested with five L1 larvae. The samples were assessed for mortality, anti-feeding effect, and growth inhibition in comparison to untreated samples 3 days after infestation. Control of Spodoptera littoralis by a test sample is given when at least one of the categories mortality, anti-feedant effect, and growth inhibition is higher than the untreated sample.

[5] = system: Plutella xylostella; assay: Plutella xylostella (diamond back moth), artificial diet; settings: 120 h, application rate 200 ppm, L2 larvae, 5 days after infestation, read-out: effect in at least one of the two categories (mortality or growth inhibition)
Procedure: 24-well microtiter plates with artificial diet were treated with aqueous test solutions prepared from 10'000 ppm DMSO stock solutions by pipetting. After drying, the plates were infested with L2 larvae (10 to 15 per well). The samples were assessed for mortality and growth inhibition in comparison to untreated samples 5 days after infestation.
as §1

[6] = system: Euschistus heros; assay: Euschistus heros (neotropical brown stink bug), sprayed soybean leaves; settings: 120 h, application rate 200 ppm, N2 nymphs, 5 days after infestation, read-out: effect in at least one of the two categories (mortality or growth inhibition)
Procedure: Soybean leaves on agar in 24-well microtiter plates were sprayed with aqueous test solutions prepared from 10'000 ppm DMSO stock solutions. After drying the leaves were infested with N2 nymphs. The samples were assessed for mortality and growth inhibition in comparison to untreated samples 5 days after infestation.
as §1

Cc1cc(C2=NO[C@@](c3cc(Cl)cc(Cl)c3)(C(F)(F)F)C2)ccc1C(=O)N[C@@H]1CON(S(=O)(=O)CC(=O)N(C)C)C1 [Compound A202, 4-[(5S)-5-(3,5-dichlorophenyl)-5-(trifluoromethyl)-4H-1,2-oxazol-3-yl]-N-[(4S)-2-[2-(dimethylamino)-2-oxoethyl]sulfonyl-1,2-oxazolidin-4-yl]-2-methylbenzamide]
≥ 80%: percent effect (mortality or growth inhibition) at 200 ppm [1] | mortality at 200 ppm [2] | mortality at 200 ppm [3] | mortality at 200 ppm [4] | percent effect (mortality or growth inhibition) at 200 ppm [5] | percent effect (mortality or growth inhibition) at 200 ppm [6]

Cc1cc(C2=NO[C@](c3cc(Cl)c(F)c(Cl)c3)(C(F)(F)F)C2)ccc1C(=O)N[C@H]1CON(S(=O)(=O)CCC(F)(F)F)C1 [Compound A199, 4-[(5R)-5-(3,5-dichloro-4-fluorophenyl)-5-(trifluoromethyl)-4H-1,2-oxazol-3-yl]-2-methyl-N-[(4R)-2-(3,3,3-trifluoropropylsulfonyl)-1,2-oxazolidin-4-yl]benzamide]
≥ 80%: percent effect (mortality or growth inhibition) at 200 ppm [1] | mortality at 200 ppm [2] | mortality at 200 ppm [3] | mortality at 200 ppm [4] | percent effect (mortality or growth inhibition) at 200 ppm [5] | percent effect (mortality or growth inhibition) at 200 ppm [6]

CN(C)S(=O)(=O)N1C[C@@H](NC(=O)c2ccc(C3=NO[C@@](c4cc(Cl)cc(Cl)c4)(C(F)(F)F)C3)cc2Cl)CO1 [Compound A110, 2-chloro-4-[(5S)-5-(3,5-dichlorophenyl)-5-(trifluoromethyl)-4H-isoxazol-3-yl]-N-[(4R)-2-(dimethylsulfamoyl)isoxazolidin-4-yl]benzamide]
≥ 80%: percent effect (mortality or growth inhibition) at 200 ppm [1] | mortality at 200 ppm [2] | mortality at 200 ppm [3] | mortality at 200 ppm [4] | percent effect (mortality or growth inhibition) at 200 ppm [5] | percent effect (mortality or growth inhibition) at 200 ppm [6]

Cc1cc(C2=NO[C@](c3cc(Cl)c(F)c(Cl)c3)(C(F)(F)F)C2)ccc1C(=O)N[C@H]1CON(S(=O)(=O)CC(F)F)C1 [Compound A225, 4-[(5R)-5-(3,5-dichloro-4-fluorophenyl)-5-(trifluoromethyl)-4H-1,2-oxazol-3-yl]-N-[(4R)-2-(2,2-difluoroethylsulfonyl)-1,2-oxazolidin-4-yl]-2-methylbenzamide]
≥ 80%: percent effect (mortality or growth inhibition) at 200 ppm [1] | mortality at 200 ppm [2] | mortality at 200 ppm [3] | mortality at 200 ppm [4] | percent effect (mortality or growth inhibition) at 200 ppm [5] | percent effect (mortality or growth inhibition) at 200 ppm [6]

CS(=O)(=O)N1CC(NC(=O)c2ccc(C3=NOC(c4cc(Cl)cc(Cl)c4)(C(F)(F)F)C3)cc2Cl)CO1 (stereo not drawn) [Compound A49]
≥ 80%: percent effect (mortality or growth inhibition) at 200 ppm [1] | mortality at 200 ppm [2] | mortality at 200 ppm [3] | mortality at 200 ppm [4] | percent effect (mortality or growth inhibition) at 200 ppm [5] | percent effect (mortality or growth inhibition) at 200 ppm [6]

CCOC(=O)CN(C)S(=O)(=O)N1CC(NC(=O)c2ccc(C3=NO[C@@](c4cc(Cl)c(Cl)c(Cl)c4)(C(F)(F)F)C3)cc2C)CO1 (stereo partly drawn) [Compound A89, ethyl 2-[methyl-[4-[[2-methyl-4-[(5S)-5-(3,4,5-trichlorophenyl)-5-(trifluoromethyl)-4H-isoxazol-3-yl]benzoyl]amino]isoxazolidin-2-yl]sulfonyl-amino]acetate]
≥ 80%: percent effect (mortality or growth inhibition) at 200 ppm [1] | mortality at 200 ppm [2] | mortality at 200 ppm [3] | mortality at 200 ppm [4] | percent effect (mortality or growth inhibition) at 200 ppm [5] | percent effect (mortality or growth inhibition) at 200 ppm [6]

Cc1cc(C2=NOC(c3cccc(C(F)(F)F)c3)(C(F)(F)F)C2)ccc1C(=O)NC1CON(S(C)(=O)=O)C1 (stereo not drawn) [Compound A60]
≥ 80%: percent effect (mortality or growth inhibition) at 200 ppm [1] | mortality at 200 ppm [2] | mortality at 200 ppm [3] | mortality at 200 ppm [4] | percent effect (mortality or growth inhibition) at 200 ppm [5] | percent effect (mortality or growth inhibition) at 200 ppm [6]

Cc1cc(C2=NO[C@](c3cc(Cl)cc(Cl)c3)(C(F)(F)F)C2)ccc1C(=O)N[C@H]1CON(S(=O)(=O)NC2(C#N)CC2)C1 [Compound A167]
≥ 80%: percent effect (mortality or growth inhibition) at 200 ppm [1] | mortality at 200 ppm [2] | mortality at 200 ppm [3] | mortality at 200 ppm [4] | percent effect (mortality or growth inhibition) at 200 ppm [5] | percent effect (mortality or growth inhibition) at 200 ppm [6]

COC(=O)CN(C)S(=O)(=O)N1CC(NC(=O)c2ccc(C3=NO[C@@](c4cc(Cl)c(Cl)c(Cl)c4)(C(F)(F)F)C3)cc2C)CO1 (stereo partly drawn) [Compound A88, methyl 2-[methyl-[4-[[2-methyl-4-[(5S)-5-(3,4,5-trichlorophenyl)-5-(trifluoromethyl)-4H-isoxazol-3-yl]benzoyl]amino]isoxazolidin-2-yl]sulfonyl-amino]acetate]
≥ 80%: percent effect (mortality or growth inhibition) at 200 ppm [1] | mortality at 200 ppm [2] | mortality at 200 ppm [3] | mortality at 200 ppm [4] | percent effect (mortality or growth inhibition) at 200 ppm [5] | percent effect (mortality or growth inhibition) at 200 ppm [6]

CS(=O)(=O)N1CC(NC(=O)c2ccc(C3=NOC(c4cc(Cl)cc(Cl)c4)(C(F)(F)F)C3)c3ccccc23)CO1 (stereo not drawn) [Compound A46]
≥ 80%: percent effect (mortality or growth inhibition) at 200 ppm [1] | mortality at 200 ppm [2] | mortality at 200 ppm [3] | mortality at 200 ppm [4] | percent effect (mortality or growth inhibition) at 200 ppm [5] | percent effect (mortality or growth inhibition) at 200 ppm [6]

Cc1cc(C2=NO[C@@](c3cc(Cl)c(F)c(Cl)c3)(C(F)(F)F)C2)ccc1C(=O)N[C@@H]1CON(S(=O)(=O)CC(=O)NO)C1 [Compound A203, 4-[(5S)-5-(3,5-dichloro-4-fluorophenyl)-5-(trifluoromethyl)-4H-1,2-oxazol-3-yl]-N-[(4S)-2-[2-(hydroxyamino)-2-oxoethyl]sulfonyl-1,2-oxazolidin-4-yl]-2-methylbenzamide]
≥ 80%: percent effect (mortality or growth inhibition) at 200 ppm [1] | mortality at 200 ppm [2] | mortality at 200 ppm [3] | mortality at 200 ppm [4] | percent effect (mortality or growth inhibition) at 200 ppm [5] | percent effect (mortality or growth inhibition) at 200 ppm [6]

Cc1cc(C2=NO[C@@](c3cc(Cl)cc(Cl)c3)(C(F)(F)F)C2)ccc1C(=O)N[C@@H]1CON(S(=O)(=O)CC(F)(F)F)C1 [Compound A195, 4-[(5S)-5-(3,5-dichlorophenyl)-5-(trifluoromethyl)-4H-1,2-oxazol-3-yl]-2-methyl-N-[(4S)-2-(2,2,2-trifluoroethylsulfonyl)-1,2-oxazolidin-4-yl]benzamide]
≥ 80%: percent effect (mortality or growth inhibition) at 200 ppm [1] | mortality at 200 ppm [2] | mortality at 200 ppm [3] | mortality at 200 ppm [4] | percent effect (mortality or growth inhibition) at 200 ppm [5] | percent effect (mortality or growth inhibition) at 200 ppm [6]

CS(=O)(=O)N1CC(NC(=O)c2ccc(C3=NOC(c4cc(Cl)cc(Cl)c4)(C(F)(F)F)C3)cc2C(F)(F)F)CO1 (stereo not drawn) [Compound A58]
≥ 80%: percent effect (mortality or growth inhibition) at 200 ppm [1] | mortality at 200 ppm [2] | mortality at 200 ppm [3] | mortality at 200 ppm [4] | percent effect (mortality or growth inhibition) at 200 ppm [5] | percent effect (mortality or growth inhibition) at 200 ppm [6]
